# Measured values taken from patent US20090036400A1, “Pharmaceutical Preparations for Treating the Consequences of Alcohol Abuse, Hepatitis, Pancreatitis, Alzheimer's Disease, Parkinson's Disease, Diabetes, Toxic Kidney Disease, Reperfusion Damage, Arteriosclerosis, and as an Antidote Against Environmental Toxins and Medicinal Intoxication” (priority 2004, published 2009).
# Counter-ions that a name gives are not always drawn.
# Biological target: T1, cytochrome P450 2E1 (Rattus norvegicus, UniProt P05182)
# T1 construct: from tissue
# Assay: p-nitrophenol-hydroxylase activity determination (inhibiting constants)
# Assay type: biochemical
# Conditions: microsomal fraction of acetone-induced Sprague-Dawley rats; substrate p-nitrophenol; read-out: Ki (inhibiting constant)
# Experimental: 8 male Sprague-Dawley rats were administered 5% acetone (v-v) in drinking water for 7 days, as described by M. H. Wang et al. in Arch. Biochem. Biophys. […] The preparation of the microsomal fraction is carried out based on the method published by Wang, P., Mason, P. S., Günderlich, F. G., in Arch. Biochem. Biophys.
# p-Nitrophenol applies as a specific substrate for cytochrome P450 2E1.
# T1 sequence (P05182 whole entry): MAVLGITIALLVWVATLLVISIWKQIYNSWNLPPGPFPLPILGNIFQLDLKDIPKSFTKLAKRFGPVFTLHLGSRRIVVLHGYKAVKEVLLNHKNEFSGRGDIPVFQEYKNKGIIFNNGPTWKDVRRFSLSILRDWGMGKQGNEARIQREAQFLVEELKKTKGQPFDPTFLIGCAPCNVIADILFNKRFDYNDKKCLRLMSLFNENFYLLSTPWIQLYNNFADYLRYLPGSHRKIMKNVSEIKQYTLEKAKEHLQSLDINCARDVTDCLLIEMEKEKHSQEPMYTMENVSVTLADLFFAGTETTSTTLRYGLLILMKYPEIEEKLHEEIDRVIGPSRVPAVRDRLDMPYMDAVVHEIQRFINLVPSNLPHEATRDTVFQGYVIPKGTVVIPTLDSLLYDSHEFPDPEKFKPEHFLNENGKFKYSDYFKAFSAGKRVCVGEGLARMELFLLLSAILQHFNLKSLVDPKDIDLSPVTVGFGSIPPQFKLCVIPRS
row,SMILES,Ki [nM]
1,CCCCCCCCCCCCCCCCC(N)COP(=O)([O-])OCC[N+](C)(C)C (racemic) [rac-1-O-phosphocholine-2-amino-octadecane-hydrochloride],2250
2,CCCCCCCCCCCCOP(=O)([O-])OCC[N+](C)(C)C [Dodecylphosphorylcholine],450
3,"CCCCCCCCCCCCCCCCOP(=O)([O-])OCC[N+](C)(C)C [Hexadecylphosphocholine, reference compound]",600
